From US4057686A, “Sulphonic acid salts of S-adenosilmethionine” (Bioresearch Limited, priority 1974, dated 1977)

Assay: SAM content / stability on storage in the dry state
Format: physicochemical
Conditions: 60 days at 45°
Procedure: The great technical progress achieved by these new salts is their stability with time at 45° in the dry state.
The SAM content of all acids according to the present invention remains unchanged even after […] at 45° in the dry state.

## C[S+](CC[C@H](N)C(=O)O)C[C@H]1O[C@@H](n2cnc3c(N)ncnc32)[C@H](O)[C@@H]1O (stereo partly shown) [chloride]
  decomposition after 60 days: completely decomposed
